Activity calls are given as the source filed them. For most assays here, no stated cut-off is given here; in the data, actives have a measured Kd and inactives only a lower limit.
Tests used:
[1] = target: Cyclin-dependent kinase 17 (Homo sapiens, UniProt Q00537)
[2] = target: T1, Thyroid hormone receptor-associated protein 3 (Homo sapiens, UniProt Q9Y2W1)
T1 sequence (Q9Y2W1 whole entry): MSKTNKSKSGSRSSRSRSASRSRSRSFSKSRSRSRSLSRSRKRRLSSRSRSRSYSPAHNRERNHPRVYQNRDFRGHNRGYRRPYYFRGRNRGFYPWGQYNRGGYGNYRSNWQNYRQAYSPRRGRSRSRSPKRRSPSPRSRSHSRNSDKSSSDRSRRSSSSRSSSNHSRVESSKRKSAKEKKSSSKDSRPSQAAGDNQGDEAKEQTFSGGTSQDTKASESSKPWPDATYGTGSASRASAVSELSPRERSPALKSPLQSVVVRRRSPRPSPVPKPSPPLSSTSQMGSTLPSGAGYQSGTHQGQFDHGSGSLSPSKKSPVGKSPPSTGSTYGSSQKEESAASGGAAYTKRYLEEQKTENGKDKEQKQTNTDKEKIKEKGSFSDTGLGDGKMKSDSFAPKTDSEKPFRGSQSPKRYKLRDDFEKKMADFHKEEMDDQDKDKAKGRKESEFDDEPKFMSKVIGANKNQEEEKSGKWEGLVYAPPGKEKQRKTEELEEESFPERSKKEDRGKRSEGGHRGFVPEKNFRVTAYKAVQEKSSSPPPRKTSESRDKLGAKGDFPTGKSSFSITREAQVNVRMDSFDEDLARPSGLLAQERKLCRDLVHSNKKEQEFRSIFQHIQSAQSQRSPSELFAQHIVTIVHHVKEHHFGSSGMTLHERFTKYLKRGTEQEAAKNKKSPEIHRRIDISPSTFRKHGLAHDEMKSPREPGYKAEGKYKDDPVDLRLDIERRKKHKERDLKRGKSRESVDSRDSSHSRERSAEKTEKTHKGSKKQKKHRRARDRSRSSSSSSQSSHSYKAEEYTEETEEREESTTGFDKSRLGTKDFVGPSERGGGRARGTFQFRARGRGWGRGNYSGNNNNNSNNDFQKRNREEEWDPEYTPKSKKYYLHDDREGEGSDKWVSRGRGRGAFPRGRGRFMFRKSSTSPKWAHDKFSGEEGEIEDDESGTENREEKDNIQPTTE

[3] = target: Epidermal growth factor receptor (Homo sapiens, UniProt P00533)
Chain of Epidermal growth factor receptor (P00533 whole entry): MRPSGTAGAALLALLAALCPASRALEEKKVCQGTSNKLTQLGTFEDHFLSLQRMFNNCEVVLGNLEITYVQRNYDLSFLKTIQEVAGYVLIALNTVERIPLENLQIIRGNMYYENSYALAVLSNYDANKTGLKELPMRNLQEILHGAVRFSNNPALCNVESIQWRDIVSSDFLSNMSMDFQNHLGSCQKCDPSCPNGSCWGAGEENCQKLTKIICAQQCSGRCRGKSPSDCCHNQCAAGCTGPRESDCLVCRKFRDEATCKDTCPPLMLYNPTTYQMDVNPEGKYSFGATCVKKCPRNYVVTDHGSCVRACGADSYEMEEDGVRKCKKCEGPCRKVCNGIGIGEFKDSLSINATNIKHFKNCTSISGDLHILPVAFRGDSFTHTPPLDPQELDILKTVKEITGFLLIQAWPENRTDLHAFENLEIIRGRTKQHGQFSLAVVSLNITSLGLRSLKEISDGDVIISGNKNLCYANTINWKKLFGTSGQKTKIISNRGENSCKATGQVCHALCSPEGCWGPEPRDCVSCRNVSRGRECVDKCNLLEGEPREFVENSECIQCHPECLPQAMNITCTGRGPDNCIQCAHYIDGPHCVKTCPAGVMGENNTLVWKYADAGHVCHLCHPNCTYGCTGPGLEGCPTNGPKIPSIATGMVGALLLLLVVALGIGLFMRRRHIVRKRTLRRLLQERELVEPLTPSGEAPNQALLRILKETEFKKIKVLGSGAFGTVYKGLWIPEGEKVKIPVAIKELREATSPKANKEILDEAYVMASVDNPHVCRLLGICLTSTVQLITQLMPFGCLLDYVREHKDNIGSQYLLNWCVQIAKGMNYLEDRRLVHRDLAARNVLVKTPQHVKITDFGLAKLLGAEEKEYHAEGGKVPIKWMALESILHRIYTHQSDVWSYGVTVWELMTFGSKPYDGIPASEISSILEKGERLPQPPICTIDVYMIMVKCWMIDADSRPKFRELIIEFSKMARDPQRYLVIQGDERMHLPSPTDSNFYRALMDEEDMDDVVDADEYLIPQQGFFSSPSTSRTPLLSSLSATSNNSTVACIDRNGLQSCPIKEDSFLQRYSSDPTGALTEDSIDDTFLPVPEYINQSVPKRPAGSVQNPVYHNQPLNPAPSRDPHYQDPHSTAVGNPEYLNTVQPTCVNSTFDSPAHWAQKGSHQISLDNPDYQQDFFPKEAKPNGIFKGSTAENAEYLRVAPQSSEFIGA

[4] = target: Glycogen synthase kinase-3 beta (Homo sapiens, UniProt P49841)
Chain of Glycogen synthase kinase-3 beta (P49841 whole entry): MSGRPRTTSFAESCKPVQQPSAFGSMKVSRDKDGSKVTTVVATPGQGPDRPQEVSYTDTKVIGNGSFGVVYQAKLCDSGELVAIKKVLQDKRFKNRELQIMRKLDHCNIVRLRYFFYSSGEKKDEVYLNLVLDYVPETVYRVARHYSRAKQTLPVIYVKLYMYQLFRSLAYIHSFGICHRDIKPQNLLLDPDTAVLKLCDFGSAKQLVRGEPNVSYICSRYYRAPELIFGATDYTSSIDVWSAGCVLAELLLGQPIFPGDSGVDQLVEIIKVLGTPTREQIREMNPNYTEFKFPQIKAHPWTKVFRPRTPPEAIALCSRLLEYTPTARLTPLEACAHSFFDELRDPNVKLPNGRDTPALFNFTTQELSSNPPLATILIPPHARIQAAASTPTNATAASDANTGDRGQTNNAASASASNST

[5] = target: Hepatocyte growth factor receptor (Homo sapiens, UniProt P08581)
Chain of Hepatocyte growth factor receptor (P08581 whole entry): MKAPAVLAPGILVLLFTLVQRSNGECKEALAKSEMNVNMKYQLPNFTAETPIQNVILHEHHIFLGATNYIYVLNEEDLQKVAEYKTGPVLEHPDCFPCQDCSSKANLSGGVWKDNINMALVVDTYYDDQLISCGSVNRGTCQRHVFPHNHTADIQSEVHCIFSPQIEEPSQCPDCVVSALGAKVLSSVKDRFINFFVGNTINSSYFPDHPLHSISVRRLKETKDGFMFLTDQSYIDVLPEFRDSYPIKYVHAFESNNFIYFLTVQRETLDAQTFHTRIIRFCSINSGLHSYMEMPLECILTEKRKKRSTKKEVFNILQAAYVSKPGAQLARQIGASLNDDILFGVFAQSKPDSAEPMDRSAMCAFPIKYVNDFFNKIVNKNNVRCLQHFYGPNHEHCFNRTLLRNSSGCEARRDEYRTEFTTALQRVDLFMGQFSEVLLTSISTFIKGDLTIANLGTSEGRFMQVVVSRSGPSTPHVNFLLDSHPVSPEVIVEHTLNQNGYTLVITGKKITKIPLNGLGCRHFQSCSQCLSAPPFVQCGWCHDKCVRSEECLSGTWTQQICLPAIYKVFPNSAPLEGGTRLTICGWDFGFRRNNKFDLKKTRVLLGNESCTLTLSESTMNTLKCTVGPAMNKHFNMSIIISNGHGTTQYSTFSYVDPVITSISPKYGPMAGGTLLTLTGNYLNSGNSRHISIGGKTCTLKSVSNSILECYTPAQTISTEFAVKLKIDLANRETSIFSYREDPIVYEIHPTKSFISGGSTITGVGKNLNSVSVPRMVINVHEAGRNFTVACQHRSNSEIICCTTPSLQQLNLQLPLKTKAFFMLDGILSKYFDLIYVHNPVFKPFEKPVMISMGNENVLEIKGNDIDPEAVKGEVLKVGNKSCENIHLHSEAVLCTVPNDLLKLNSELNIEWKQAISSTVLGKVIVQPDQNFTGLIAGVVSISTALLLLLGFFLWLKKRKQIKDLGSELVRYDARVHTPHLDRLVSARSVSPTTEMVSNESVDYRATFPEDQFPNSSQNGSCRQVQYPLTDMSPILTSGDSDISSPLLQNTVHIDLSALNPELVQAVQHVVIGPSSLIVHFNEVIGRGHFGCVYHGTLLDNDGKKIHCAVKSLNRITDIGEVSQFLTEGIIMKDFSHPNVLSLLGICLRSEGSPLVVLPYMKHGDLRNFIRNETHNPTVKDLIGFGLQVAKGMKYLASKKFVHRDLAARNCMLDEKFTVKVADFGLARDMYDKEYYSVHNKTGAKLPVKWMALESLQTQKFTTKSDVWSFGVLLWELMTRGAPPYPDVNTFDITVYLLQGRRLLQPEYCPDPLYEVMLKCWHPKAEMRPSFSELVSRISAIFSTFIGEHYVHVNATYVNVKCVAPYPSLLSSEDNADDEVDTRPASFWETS

[6] = target: T2, Dual specificity protein kinase TTK (Homo sapiens, UniProt P33981)
T2 sequence (P33981 whole entry): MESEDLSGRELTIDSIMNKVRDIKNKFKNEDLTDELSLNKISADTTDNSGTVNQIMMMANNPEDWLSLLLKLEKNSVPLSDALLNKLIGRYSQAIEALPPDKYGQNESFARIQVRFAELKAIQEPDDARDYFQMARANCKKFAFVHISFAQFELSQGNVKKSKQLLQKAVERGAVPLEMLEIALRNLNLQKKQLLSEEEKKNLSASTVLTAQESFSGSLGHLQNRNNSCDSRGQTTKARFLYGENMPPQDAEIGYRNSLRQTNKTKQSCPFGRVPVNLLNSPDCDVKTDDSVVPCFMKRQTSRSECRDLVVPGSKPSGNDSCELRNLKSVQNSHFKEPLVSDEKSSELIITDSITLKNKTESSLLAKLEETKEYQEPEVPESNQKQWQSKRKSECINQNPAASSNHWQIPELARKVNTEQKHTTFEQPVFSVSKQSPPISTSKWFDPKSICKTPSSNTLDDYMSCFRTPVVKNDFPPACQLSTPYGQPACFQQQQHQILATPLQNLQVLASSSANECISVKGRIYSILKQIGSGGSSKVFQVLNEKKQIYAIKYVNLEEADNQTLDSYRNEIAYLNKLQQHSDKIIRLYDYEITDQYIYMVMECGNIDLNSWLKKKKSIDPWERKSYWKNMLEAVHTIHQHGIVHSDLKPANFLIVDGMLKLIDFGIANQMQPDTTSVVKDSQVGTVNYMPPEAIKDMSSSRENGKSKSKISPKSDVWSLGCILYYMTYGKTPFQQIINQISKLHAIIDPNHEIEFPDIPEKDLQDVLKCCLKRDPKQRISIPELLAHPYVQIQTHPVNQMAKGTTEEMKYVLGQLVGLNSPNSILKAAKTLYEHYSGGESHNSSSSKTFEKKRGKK

Chain of Cyclin-dependent kinase 17 (Q00537 whole entry): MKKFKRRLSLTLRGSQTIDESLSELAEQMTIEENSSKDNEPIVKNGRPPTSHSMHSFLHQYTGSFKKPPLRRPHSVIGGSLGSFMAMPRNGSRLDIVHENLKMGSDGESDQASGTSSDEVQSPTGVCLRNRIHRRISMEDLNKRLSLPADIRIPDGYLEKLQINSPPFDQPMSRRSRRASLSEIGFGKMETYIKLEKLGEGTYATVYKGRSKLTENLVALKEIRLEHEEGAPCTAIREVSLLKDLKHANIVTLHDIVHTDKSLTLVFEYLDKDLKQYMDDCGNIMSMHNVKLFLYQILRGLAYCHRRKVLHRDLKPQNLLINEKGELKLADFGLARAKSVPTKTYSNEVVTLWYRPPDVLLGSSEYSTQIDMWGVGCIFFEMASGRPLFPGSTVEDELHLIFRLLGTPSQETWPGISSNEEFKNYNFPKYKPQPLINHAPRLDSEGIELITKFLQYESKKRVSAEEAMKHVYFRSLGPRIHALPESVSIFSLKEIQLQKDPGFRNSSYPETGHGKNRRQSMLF

Compound	Kd [1]	Kd [2]	Kd [3]	Kd [4]	Kd [5]	Kd [6]
CCN(CCCOc1ccc2c(Nc3cc(CC(=O)Nc4cccc(F)c4)n[nH]3)ncnc2c1)CCOP(=O)(O)O [BARASERTIB]	> 30 µM (inactive)	> 30 µM (inactive)	–	–	–	–
CNC(=O)c1cc(COc2nnc(Nc3ccc(Cl)cc3)c3ccoc23)ccn1 [TELATINIB]	> 30 µM (inactive)	–	> 30 µM (inactive)	> 30 µM (inactive)	> 30 µM (inactive)	> 30 µM (inactive)
COc1cc2c(N3CCN(C(=O)Nc4ccc(OC(C)C)cc4)CC3)ncnc2cc1OCCCN1CCCCC1 [TANDUTINIB]	–	> 30 µM (inactive)	–	–	–	–
FC(F)(F)c1ccc(CNc2ccc(Cc3c[nH]c4ncc(Cl)cc34)cn2)cn1 [PEXIDARTINIB]	> 30 µM (inactive)	–	> 30 µM (inactive)	> 30 µM (inactive)	> 30 µM (inactive)	> 30 µM (inactive)
C=CC(=O)Nc1cccc(Nc2nc(Nc3ccc(N4CCN(C(C)=O)CC4)cc3OC)ncc2C(F)(F)F)c1 [ROCILETINIB]	> 30 µM (inactive)	–	–	> 30 µM (inactive)	–	–
N#CCNC(=O)c1ccc(-c2ccnc(Nc3ccc(N4CCOCC4)cc3)n2)cc1 [MOMELOTINIB]	1.38 µM	–	–	–	–	> 30 µM (inactive)
O=S(=O)(c1cccc2c(O)nccc12)N1CCCNCC1 [HYDROXYFASUDIL]	> 30 µM (inactive)	> 30 µM (inactive)	–	> 30 µM (inactive)	> 30 µM (inactive)	> 30 µM (inactive)
C[C@@H]1COC(Nc2ccc3ncnc(Nc4ccc(OCc5nccs5)c(Cl)c4)c3c2)=N1 [VARLITINIB]	> 30 µM (inactive)	> 30 µM (inactive)	0.005 µM (active)	> 30 µM (inactive)	> 30 µM (inactive)	> 30 µM (inactive)
COc1cc(F)c(F)c(Nc2ccc(I)cc2F)c1NS(=O)(=O)C1(C[C@H](O)CO)CC1 [REFAMETINIB]	> 30 µM (inactive)	> 30 µM (inactive)	> 30 µM (inactive)	> 30 µM (inactive)	> 30 µM (inactive)	–
CC1(COc2ccc3c(c2)ncn3-c2ccc3cccc(N4CCC(N)CC4)c3n2)COC1 [CRENOLANIB]	> 30 µM (inactive)	–	> 30 µM (inactive)	> 30 µM (inactive)	> 30 µM (inactive)	–
O=c1[nH]c([C@@H]2CCCN2)nc2c1oc1ccc(Cl)cc12	–	–	> 30 µM (inactive)	8.79 µM	> 30 µM (inactive)	–
O=C(O)c1ccc2c(c1)nc(Nc1cccc(Cl)c1)c1ccncc12 [SILMITASERTIB]	> 30 µM (inactive)	> 30 µM (inactive)	> 30 µM (inactive)	–	> 30 µM (inactive)	> 30 µM (inactive)
CC[C@@](C)(Nc1ccnc(-c2c[nH]c3ncccc23)n1)C(=O)NCC(F)(F)F [DECERNOTINIB]	0.139 µM (active)	–	> 30 µM (inactive)	> 30 µM (inactive)	0.094 µM	–
Cc1c(NC(=O)OC[C@@H]2COCCN2)cn2ncnc(Nc3ccc4c(cnn4Cc4cccc(F)c4)c3)c12 [AC-480]	–	> 30 µM (inactive)	0.003 µM (active)	> 30 µM (inactive)	> 30 µM (inactive)	> 30 µM (inactive)
C=CCn1c(=O)c2cnc(Nc3ccc(N4CCN(C)CC4)cc3)nc2n1-c1cccc(C(C)(C)O)n1 [ADAVOSERTIB]	> 30 µM (inactive)	> 30 µM (inactive)	> 30 µM (inactive)	–	–	> 30 µM (inactive)
COCCN1CCN(Cc2ccc(-c3n[nH]c4c3C(=O)c3c(NC(=O)NN5CCOCC5)cccc3-4)cc2)CC1 [RGB-286638]	–	> 30 µM (inactive)	> 30 µM (inactive)	0.008 µM (active)	> 30 µM (inactive)	–
COc1cc2ncnc(Nc3ccc(F)c(Cl)c3)c2cc1NC(=O)/C=C/CN1CCCCC1 [DACOMITINIB ANHYDROUS]	> 30 µM (inactive)	> 30 µM (inactive)	–	> 30 µM (inactive)	> 30 µM (inactive)	–
CN(c1ncccc1CNc1nc(Nc2ccc3c(c2)CC(=O)N3)ncc1C(F)(F)F)S(C)(=O)=O [PF-00562271]	0.089 µM (active)	–	–	–	–	–
COc1cc2nccc(Oc3ccc(NC(=O)C4(C(=O)Nc5ccc(F)cc5)CC4)cc3)c2cc1OC [CABOZANTINIB]	> 30 µM (inactive)	> 30 µM (inactive)	–	> 30 µM (inactive)	–	> 30 µM (inactive)
C=CCN(/C=C1/C(=O)O[C@H](COC)[C@@]2(C)C1=C(O)C(=O)C1=C2[C@H](OC(C)=O)C[C@]2(C)C(=O)CC[C@@H]12)CC=C [SONOLISIB]	> 30 µM (inactive)	> 30 µM (inactive)	> 30 µM (inactive)	> 30 µM (inactive)	> 30 µM (inactive)	–
CCc1nc(C(N)=O)c(Nc2ccc(N3CCC(N4CCN(C)CC4)CC3)c(OC)c2)nc1NC1CCOCC1 [GILTERITINIB]	> 30 µM (inactive)	> 30 µM (inactive)	3.5 µM (active)	> 30 µM (inactive)	–	> 30 µM (inactive)
COc1cc2ncnc(Nc3ccc(O)cc3)c2cc1OC [WHI-P131]	> 30 µM (inactive)	> 30 µM (inactive)	1.16 µM (active)	> 30 µM (inactive)	> 30 µM (inactive)	> 30 µM (inactive)
O[C@H]1CC[C@H](Nc2ncc3nc(Nc4c(F)cc(F)cc4F)n([C@H]4CCOC4)c3n2)CC1 [TANZISERTIB]	> 30 µM (inactive)	> 30 µM (inactive)	–	> 30 µM (inactive)	> 30 µM (inactive)	> 30 µM (inactive)
Cn1cc(-c2[nH]c3cc(NC(=O)[C@H](N)C4CCCCC4)cc4c3c2C=NNC4=O)cn1	> 30 µM (inactive)	–	–	> 30 µM (inactive)	> 30 µM (inactive)	> 30 µM (inactive)
C=CC(=O)Nc1cc(Nc2nccc(-c3cn(C)c4ccccc34)n2)c(OC)cc1N(C)CCN(C)C [OSIMERTINIB]	> 30 µM (inactive)	> 30 µM (inactive)	–	> 30 µM (inactive)	–	–
CN1CCN(c2nc(C3=C(c4c[nH]c5ccccc45)C(=O)NC3=O)c3ccccc3n2)CC1 [SOTRASTAURIN]	> 30 µM (inactive)	–	–	0.709 µM (active)	> 30 µM (inactive)	> 30 µM (inactive)

Results, then the compound that gave them:

Kd [1]	Kd [2]	Kd [3]	Kd [4]	Kd [5]	Kd [6]	Compound
> 30 µM (inactive)	–	–	> 30 µM (inactive)	–	–	CC(C)(O)CC(=O)NCCn1ccc2ncnc(Nc3ccc(Oc4cccc(C(F)(F)F)c4)c(Cl)c3)c21 [TAK-285]
> 30 µM (inactive)	> 30 µM (inactive)	0.602 µM (active)	> 30 µM (inactive)	> 30 µM (inactive)	–	COc1cc2ncnc3c2cc1OCCCCCN(C)Cc1ccc(Br)cc1N3 [JNJ-26483327]
–	–	0.225 µM (active)	> 30 µM (inactive)	–	> 30 µM (inactive)	COc1cccc(Nc2ncnn3ccc(CN4CC[C@@H](N)[C@H](O)C4)c23)c1 [BMS-690514]
–	> 30 µM (inactive)	–	–	–	–	C[C@@]1(C(=O)Nc2ccc(F)nc2)CCCN1c1nc(Nc2cc(C3CC3)n[nH]2)c2cccn2n1 [BMS-754807]
–	–	–	–	0.011 µM (active)	–	CCOc1ccn(-c2ccc(F)cc2)c(=O)c1C(=O)Nc1ccc(Oc2ccnc(N)c2Cl)c(F)c1 [BMS-777607]
–	–	> 30 µM (inactive)	> 30 µM (inactive)	> 30 µM (inactive)	–	Cc1cc(C(=O)Nc2cc(Oc3ccc4nc(NC(=O)C5CC5)cn4n3)ccc2C)n(C)n1 [TAK-593]
> 30 µM (inactive)	> 30 µM (inactive)	> 30 µM (inactive)	> 30 µM (inactive)	> 30 µM (inactive)	–	NC(=O)c1ccc(N(C(N)=O)c2c(F)cccc2F)nc1-c1ccc(F)cc1F [VX-702]

Source: ChEMBL document CHEMBL3991601, “The target landscape of clinical kinase drugs” (Science, 2017)
